Values joined by “and” are separate entries in the source; they are usually repeats but may differ in a detail not shown here. Equal entries are not always repeated. “Also recorded” adds a separate entry of the source. Where two headings read alike, the source gives them in different places. Marks after values point to notes of the source that are not given here.
Key:
procollagen type I mRNA = test: Digoxigenin in situ hybridization, procollagen type I; format: in vivo, rat; settings: group PDT: MB 250 μg/ml, 660 nm, 100 J/cm^2; 2 weeks
Text: (§1) Digoxigenin in situ hybridization: Groups for in situ hybridization included PDT, BI, and the uninjured contralateral artery (n=3). […] Complementary DNAs (cDNAs) for type I procollagen and versican core protein were obtained as PCR fragments with each gene specific primers in which reverse primers contain T7 RNA polymerase recognition sequence at their 5′ end. Primer sequences were as follows. […] Digoxigenin-labeled antisense RNA probes were synthesized using a RNA labeling kit (Boehringer, Mannheim, Germany) according to the manufacturers' instruction and the in situ hybridization protocol used with modifications as previously described. Arterial sections were deparafinized in xylene and rehydrated through graded ethanol solutions, washed, and treated with 5 μg/ml proteinase K (Boehringer) for 30 min at 37° C. […] The hybridized probes were detected using an alkaline phosphatase conjugated anti-digoxigenin monoclonal antibody (Boehringer), and the colored product was visualized using Nitro Blue tetrazolium (Boehringer) and 5-bromo-4-chlor-indonyl-phosphate (Boehringer) as substrates. […] For statistical analysis, the median data point of every specimen was assessed and used to compare control versus PDT procollagen type I and veriscan gene expression.
(§2) Statistical Evaluation: All values are expressed as a mean ± SD.

versican mRNA = test: Digoxigenin in situ hybridization, versican; format: in vivo, rat; settings: group PDT: MB 250 μg/ml, 660 nm, 100 J/cm^2; 2 weeks
Text: as §1, §2

[1] = test system: balloon-injured rat common carotid artery (intimal hyperplasia); test: PDT with locally delivered methylene blue in balloon-injured rat carotid artery: light microscopy and histomorphometry; format: in vivo; settings: 2 weeks
Description: Control animals included BI along and MB after BI alone. Arteries were analyzed after 2 weeks with morphometric evaluation (per group: n=6), and in situ hybridization for versican and pro-collagen type 1 gene expression (digitized image pixel analyses, n=9).
Common carotid artery balloon injury was performed using a 2-French Fogarty embolectomy catheter (Baxter Health Care Corporation, Edwards Division, Irvine, Calif.). […] In brief, the balloon was introduced into the common carotid artery and inflated with 0.65 mL of air. […] The catheter was connected via a three-way stopcock to a Stratham transducer for synchronous pressure monitoring (HP 78205C, Hewlett Packard, Mass.). […] Under low ambient light, the drug was injected into the common carotid artery with 180 mm HG for 2 minutes. […] The external carotid artery was ligated, and the blood flow was restored.
The animals were randomly assigned to the following 3 groups: Group PDT (n=6): balloon injury followed by application of photosensitizer and laser irradiation; Group PS (n=6): balloon injury followed by the photosensitizer MB application alone; Group BI (n=6): no treatment other than balloon-injury (BI) to the carotid artery.
Photodynamic Therapy: Five minutes after local delivery of MB, the common carotid artery was externally irradiated with 660 nm laser light, emitted by a diode laser (Alto-Surgeon SRG-3, Polaroid, Cambridge, Mass.) to deliver a total fluence of 100 J/cm^2 at an irradiance of 100 mW/cm^2. The diode laser was coupled to a 600-μm optical fiber through a microlens to obtain a uniform 1-cm spot. The targeted artery was submerged in 0.9% saline and placed on a right-angled reflective mirror to achieve uniform irradiation, as previously described. The irradiated vessel segment was marked with periadventitial India ink.
Harvest: Animals were sacrificed 14 days after surgery by an overdose of pentobarbital. Following sacrifice, the iliac artery was cannulated and the arterial system was flushed with saline and in situ perfusion-fixed at 150 mm Hg with 10% buffered formalin. The balloon-injured vessel segments and the contralateral carotid artery were excised and placed in fresh 10% buffered formalin. After embedding in paraffin, multiple 4 μm thick cross sections were obtained from the proximal, mid, and distal vessel segments.
Vessel Histomorphometry: The histologic analyses of the arteries stained with hematoxylin and eosin consisted of both a descriptive and quantitative morphometric evaluation. The morphometry of the arteries was measured using a digitizing measurement system (Color CCB Camera Model 2222-1010, COHU Inc., San Diego, Calif.) and analyzed using the Scion Image software (Scion Corporation, Frederick, MY). Intimal area, medial area, and vessel diameter, as delineated by the external elastic lamina, were measured and calculated as previously described. In addition, adventitial cells were counted manually and are expressed as the number of cells per high power microscopic field (×400). Because the area of the adventitia varies within the different specimens, high power fields were used for all quantitative measurements of adventitial cell numbers and gene expression in the in situ hybridization experiments.

[2] = Observation of BPD-treated animals at harvest; format: in vivo, rat; settings: rats after local delivery of BPD
[3] = test system: basic fibroblast growth factor (bFGF); test: Immunohistochemistry for bFGF in arteries after BPD-PDT; format: in vivo, rat; settings: 100 J/cm^2
Text: Harvest. […] The carotid artery was flushed with saline.
Immunohistochemistry. Immunohistochemistry for basic fibroblast growth factor (bFGF) was undertaken to verify possible differential, dose-dependent effects on this growth factor which resides in the vascular wall and is known to play an important role in the early development of IH in rats. Monoclonal antibody to bFGF (Zymogenetics, Seattle, Wash.) was used to verify the presence of bFGF in the specimens using the two-layer indirect immunoperoxidase technique previously described. Briefly, the primary antibody (1:1000) was labeled by biotinylated horse anti-mouse immunoglobulin (Vector Laboratories, Burlingame, Calif.) and counterstained with nuclear fast red (Sigma Chemical Co., St. Louis, Mo.). Normal arteries were used as positive control, and arteries stained with a nonspecific primary antibody were used as negative controls to exclude nonspecific binding by the primary or secondary antibody.

[4] = 15 minutes following delivery of BPD at 400 mm Hg for two minutes; previous studies; cited from earlier work
[5] = test system: balloon-injured rat common carotid artery (intimal hyperplasia); settings: for Intimal Area: 690 nm
Description: Male Sprague Dawley rats (Charles River Breeding Laboratories, Wilmington, Mass.), weighing 350-450 g, were anesthetized with intramuscular Ketamine (75 mg/kg), Xylazine (5 mg/kg), and Atropine (40 μg/kg). A midline neck incision was performed and the left carotid artery was exposed. After clamping the common carotid and the internal carotid artery, a 2 F (French Fogarty embolectomy catheter (Baxter Health Care Corporation, LIS Division, Irvine, Calif.) was introduced into the common carotid artery via the external carotid artery. The common carotid artery was subsequently injured by inflating the balloon with 0.2 ml air and gently passing and rotating the catheter three times.
After balloon-injury, a 22 gauge polyethylene catheter was advanced through the external carotid arteriotomy into the distal portion of the common carotid artery and secured with a suture. The catheter was connected via three-way stopcock to a Statham transducer for synchronous pressure monitoring with a digital pressure manometer (HP 78205C, Hewlett Packard, Palo Alto, Calif.). The second generation photosensitizer benzoporphyrin-derivative monoacidic ring (BPD-MA Verteporfine®, Quadra Logic Technologies Inc., Vancouver, BC, Canada), provided as a liposomal preparation, was reconstituted in distilled water (2 mg/ml) and diluted in physiologic saline to a final concentration of 25 μg/ml. Once the arterial segment was isolated with microclamps under low ambient light, BPD was delivered at a pressure of 400 mm Hg for two minutes. […] Following aspiration of BPD from the arterial lumen, the artery was flushed with saline, the catheter was removed, and blood flow was restored to the internal carotid artery.
Photodynamic Therapy. Fifteen minutes following delivery of the PS to the artery wall, the common carotid artery was externally irradiated as previously described. Briefly, an argon-pumped dye laser (Coherent Innova I 100 and Coherent CR 599, Coherent, Palo Alto, Calif.) was tuned to 690 nm light at an irradiance of 100 mW/cm^2, coupled to a 600 μm optical fiber, and using a 5-mm focal length lens magnified to obtain a uniform 2-cm spot. The targeted artery was submerged in physiologic saline, placed on a right-angled reflective mirror, and optically isolated with black, light-impervious tape.
Experimental groups. The arteries were assigned to four different experimental groups: group 1 (n=6) and 2 (n=6) consisted of arteries which were pressurized with 0.5 μg/ml BPD and irradiated at a fluence of 50 and 100 J/cm^2 respectively. Group 3 (n=15) and 4 (n=4) were pressurized with 25 μg/ml BPD and irradiated at 100 or 200 J/cm^2 respectively.
Harvest. The animals were sacrificed 24 hours and 2 weeks after PDT. The carotid artery was flushed with saline. They were either in situ perfusion-fixed at 80 mm Hg with 10% buffered formalin for light microscopy or rinsed with saline, embedded in Tissue tek O.C.T. compound® (Miles Inc. Elkhart, IN) and stored at −70° C. for immunohistochemistry.
Histology. For each animal, the harvested artery was processed into three segments: proximal, mid, and distal. Multiple five-μm thick cross-sections were prepared from each specimen of the artery, and a representative from each segment was analyzed. All paraffin-embedded specimens were stained with hematoxylin and eosin. Arterial diameters, as delineated by the length of the internal elastic lamina (IEL circumference=πd), as well as intimal—and medial areas were measured using morphometric analysis with a camera lucida digitizing measurement system as previously described (Sigma Scan, Jandel Scientific, San Rafael, Calif.).

intimal hyperplasia = settings: for as long as 6 months after PDT; cited from earlier work
[6] = group PDT: MB 250 μg/ml, 660 nm, 100 J/cm^2
[7] = group PS: MB alone without irradiation
[8] = group 1: 0.5 μg/ml BPD, 50 J/cm^2, 2 weeks
[9] = group 2: 0.5 μg/ml BPD, 100 J/cm^2, 2 weeks
[10] = group 3: 25 μg/ml BPD, 100 J/cm^2, 2 weeks
[11] = group 4: 25 μg/ml BPD, 200 J/cm^2

In the case of `CN(C)c1ccc2nc3ccc(=[N+](C)C)cc-3sc2c1` [MB, methylene blue], the “Pro-collagen type I mRNA in adventitia, % of positive pixels per high power field” value (procollagen type I mRNA) was 4.13%±1.25%, the Artery thrombosis (MB study, at harvest (14 days)) was “No artery thrombosis” and the Signs of toxicity (rat, in vivo) was “no signs of toxicity”. For the same compound, the “Versican mRNA in adventitia, % of positive pixels per high power field” value (versican mRNA) was 1.13%±0.39% and 1.11±0.37%, the Diameter [1, 6] was 0.95±0.04 mm and the “Histology of arteries” value [1, 6] was “without evidence of microthrombi, inflammation, or intimal thickening; also recorded: no IH was seen”. The Medial Area [1, 6] was 0.063±0.004 mm^2, the “Number of adventitial cells per high power field” value ([1]; group PDT: MB 250 μg/ml, 660 nm, 100 J/cm^2, ×400) was 39±9.4 and the IH area ([1]; group PDT: balloon injury, MB 250 μg/ml locally, 660 nm, 100 J/cm^2) was 0±0 mm^2. For the same compound, the “Histology of arteries” value [1, 7] was “no MB-induced modulation of the vascular injury healing response; also recorded: IH formation was demonstrated”, the Medial Area [1, 7] was 0.085±0.005 mm^2 and the IH area ([1]; group PS: balloon injury, MB alone without irradiation) was 0.183±0.05 mm^2.

With “benzoporphyrin-derivative monoacid ring [BPD]” the “Signs of systemic phototoxicity” value [2] was “no signs of systemic phototoxicity”, the “bFGF staining of the vascular wall” value ([3]; group 2 / stage II: 0.5 μg/ml BPD, 24 hours after PDT) was “evidence of bFGF in all layers of the vascular wall; also recorded: bFGF could still be detected in all layers of the vascular wall; also recorded: positive staining for bFGF in all layers of the vascular wall; also recorded: avid brown staining in all layers of the vascular wall” and the “bFGF staining of the vascular wall” value ([3]; group 3 / stage III: 25 μg/ml BPD, two weeks after PDT) was “evidence for bFGF in the flat cells, presumably endothelial cells, at the luminal surface; also recorded: positive bFGF staining only of endothelial cells in the intima and fibroblasts in the adventitia”. The “Photosensitizer fluorescence in the arterial wall” value [4] was “detected through the entire arterial wall”, the “Intimal hyperplasia, histology” value ([5]; group 1 / stage I: 0.5 μg/ml BPD, 50 J/cm^2, 2 weeks) was “significant IH” and the Diameter [5, 8] was 0.93 ± 0.02 mm. For the same compound, the “Medial Area” value [5, 8] was 0.18 ± 0.01 mm^2, the “Intimal Area” value [5, 8] was 0.18±0.03 mm^2 and the Diameter [5, 9] was 0.95 ± 0.06 mm. For the same compound, the “Medial Area” value [5, 9] was 0.18 ± 0.05 mm^2, the “Intimal Area” value [5, 9] was 0.14±0.03 mm^2 and the Diameter [5, 10] was 0.82 ± 0.04 mm. For the same compound, the “Medial Area” value [5, 10] was 0.10 ± 0.02† mm^2, the “Intimal Area” value [5, 10] was 0.01 ± 0.01*‡ mm^2 and the Diameter [5, 11] was 0.91 ± 0.03 mm. The “Medial Area” value [5, 11] was 0.17 ± 0.01 mm^2.

In the case of chloraluminum sulfonated phthalocyanin, the “Inhibition of IH after PDT” value (intimal hyperplasia) is given as “inhibition of IH without arterial degeneration”.

Reference: patent publication US6520981B1, “Significance of dosimetry in photodynamic therapy of injured arteries” (The General Hospital Corporation, priority 1999, dated 2003)
